Experimental data as given in patent US10774114B2, “Respiratory syncytial virus (RSV) replication inhibitors” (priority 2014, dated 2020).
Where a SMILES comes first, the peptide text is derived from it. Bridges are numbered along the chain shown (N, C = ends). [ ]: non-standard residue; d: D form. R8 = C=CCCCCCC[C@@](C)(N)C(=O)O; R5 = C=CCCC[C@@](C)(N)C(=O)O; S5 = C=CCCC[C@](C)(N)C(=O)O

Legend:
RSV-mCherry virus = details: read-out: EC50, inhibition of viral replication; Hep2 cells infected with RSV-mCherry, peptides added post-infection, fluorescence read at 48 h
Procedure: HEp-2 cells were seeded in 96 well plates and infected with 500 PFU of rHRSV-Cherry virus. Following viral infection, cells were incubated in the presence of serial dilutions of stapled peptides. The red fluorescence was read at 48 h post infection by automatic counting.
rHRSV-mCherry Inhibition Assay.
HEp-2 cells were seeded at 5×10^4 cells per well in 96 well plates the day before and infected for 2 hours with 500 PFU of RSV-mCherry. The medium was then changed against MEM without phenol red medium containing dilutions of peptides. Each point of peptide dilution was made in duplicate. Plates were incubated 48 h at 37° C. and mCherry fluorescence measurement was performed using a spectrofluorometer (Tecan infinite M200PRO) with excitation and emission wavelengths of 580 and 620 nm, respectively (expressed in relative fluorescence units RFU). Non-infected HEp-2 cells were used as standards for fluorescence background levels.
Next the potential activity of stapled peptides was tested on infected cells. Hep2 cells were infected with a RSV-mCherry virus engineered by reverse genetics (Rameix-Welti et al, Nat Comm., 2014), and increasing concentrations of stapled peptides were added post-infection to study their effect on viral replication.

in vitro = format: cell-based; details: human
Procedure: (§1) HEp-2 (ATCC number CCL-23) and BHK-21 (clone BSRT7/5) cells were maintained in Eagle's miminum essential medium (EMEM) and Dulbecco's modified Eagle's medium (DMEM), respectively, supplemented with 10% FCS, 2 mM L-glutamine, and penicillin-streptomycin solution. The cells were grown in an incubator at 37° C. in 5% CO2. Cytotoxicity assays were done with the CellTiter-Glo Luminescent cell viability assay (Promega). Cells were transfected using Lipofectamine 2000 (Invitrogen, Cergy-Pontoise, France) as described by the manufacturer.

rHRSV-Luc = experiment: In vivo mice luciferase assay (rHRSV-Luc-infected mice); details: intranasal, 0.6 mg/ml, 50 μL in PBS, repeated at days 2 and 4; 6x10^4 PFU rHRSV-Luc
Description: In Vivo Mice Luciferase Assay.
Female BALB/c mice were purchased from the Centre d'ElevageR. Janvier (Le Genest Saint-Isle, France) and were used around 8 weeks of age. Mice strains were bred in a pathogen-free animal facility. Mice were fed normal mouse chow and water ad libitum and were raised and housed under standard conditions with air filtration. For infection experiments, mice were housed in cages inside stainless steel isolation cabinets that were ventilated under negative pressure with high-efficiency particulate air-filtered air. Mice were anesthetized by a mixture of ketamine and xylazine (1 and 0.2 mg per mouse, respectively) and infected IN with 50 μl of PBS containing 6×10^4 PFU of rHRSV-Luc. Body temperature and body weight were monitored at days 3-10. For in vivo imaging, mice were anesthetized. Alternatively, mice were killed at different time points, and lungs were then collected. For each time point, experiments were done in quadruplicate. […] Oral treatments were administered 1 h prior to RSV inoculation and then once on day 2 and on day 4. This experiment was repeated once.

Hep2 cells = experiment: in vitro; format: cell-based; details: at a concentration of 100 μM
Procedure: as §1

[1] = Far-UV CD spectroscopy (alpha-helical content); format: physicochemical; details: 10 mM phosphate buffer, pH 7.5
Procedure: FIGS. 7A-7C: Far-UV CD spectra of stapled peptides in 10 mM phosphate buffer, pH 7.5. […] HEVS 115-129.
CD experiments were performed on a Jasco-810 or on a Chirascan spectropolarimeter in a thermostated cell holder at 20° C. The samples were prepared in 10 mM phosphate buffer, pH 7.5, at a peptide concentration of 25 μM for HEVS 73-79 or […] for the other peptides. The far-UV spectra were recorded at 25° C. by step scan from 190 nm to 250 nm with a scan rate of 100 nm per min using a bandwidth of 1 nm and an integration time of 1 s. Each spectrum was the average of 5 scans. The spectra were substracted from buffer baseline and smoothed using the FFT filter (Jasco Software, Tokyo, Japan). The data were converted to per residue molar ellipticity units [Θ] (deg.cm^2.dmol^−l.residue^−1). The percentage of helicity was calculated as follows:
[formula] whereby CD222=molar ellipticity [e] at 222 nm in [mdeg], N=number of amino acids in the peptide and C=peptide molar concentration [mol/1].

Row | Compound | EC50 (RSV-mCherry virus) [µM] | also measured
1 | CC[C@H](C)[C@H](NC(=O)[C@]1(C)CCCC=CCCCCCC[C@@](C)(NC(=O)[C@H](CC(N)=O)NC(=O)[C@H](CC(N)=O)NC(=O)[C@H](C)NC(=O)[C@H](CC(=O)O)NC(=O)[C@H](CCC(=O)O)NC(C)=O)C(=O)N[C@@H](C)C(=O)N[C@@H]([C@@H](C)O)C(=O)N[C@@H](CCCCN)C(=O)N[C@@H](Cc2ccccc2)C(=O)N[C@@H](CC(C)C)C(=O)N[C@@H](CCC(=O)O)C(=O)N1)C(=O)N[C@@H](CCCCN)C(=O)NCC(=O)N[C@@H](CCCCN)C(=O)N[C@@H](Cc1ccccc1)C(=O)N[C@@H](C)C(=O)N[C@@H](CO)C(N)=O [HEVS 77, EDANNR8ATKFLES5IKGKFAS] (Ac-EDANN[R8]ATKFLE[S5]IKGKFAS-NH2; staple 6-13) | 60 | 
2 | CC[C@H](C)[C@@H]1NC(=O)[C@@](C)(NC(=O)[C@H](CCC(=O)O)NC(=O)[C@H](CC(C)C)NC(=O)[C@H](Cc2ccccc2)NC(=O)[C@H](CCCCN)NC(=O)[C@@H](NC(=O)[C@H](C)NC(=O)[C@H](CCCCN)NC(=O)[C@H](CC(N)=O)NC(=O)[C@H](CC(N)=O)NC(=O)[C@H](C)NC(=O)[C@H](CC(=O)O)NC(=O)[C@H](CCC(=O)O)NC(C)=O)[C@@H](C)O)CCCC=CCCC[C@@](C)(C(=O)N[C@@H](Cc2ccccc2)C(=O)N[C@@H](C)C(=O)N[C@@H](CO)C(N)=O)NC(=O)CNC(=O)[C@H](CCCCN)NC1=O [HEVS 78] (Ac-EDANNKATKFLE[S5]IKG[S5]FAS-NH2; staple 13-17) | 15 | CC50 (in vitro): ~40 µM
3 | CC[C@H](C)[C@@H]1NC(=O)[C@](C)(NC(=O)[C@H](CCC(=O)O)NC(=O)[C@H](CC(C)C)NC(=O)[C@H](Cc2ccccc2)NC(=O)[C@H](CCCCN)NC(=O)[C@@H](NC(=O)[C@H](C)NC(=O)[C@H](CCCCN)NC(=O)[C@H](CC(N)=O)NC(=O)[C@H](CC(N)=O)NC(=O)[C@H](C)NC(=O)[C@H](CC(=O)O)NC(=O)[C@H](CCC(=O)O)NC(C)=O)[C@@H](C)O)CCCCCCC=CCCC[C@@](C)(C(N)=O)NC(=O)[C@H](C)NC(=O)[C@H](Cc2ccccc2)NC(=O)[C@H](CCCCN)NC(=O)CNC(=O)[C@H](CCCCN)NC1=O [HEVS 79] (Ac-EDANNKATKFLE[R8]IKGKFA[S5]-NH2; staple 13-20) | ~80 | 
4 | CC[C@H](C)[C@H](NC(=O)[C@]1(C)CCCC=CCCCCCC[C@@](C)(NC(=O)[C@H](CC(N)=O)NC(=O)[C@H](CC(N)=O)NC(=O)[C@H](C)NC(=O)[C@H](CC(=O)O)NC(=O)[C@H](CCC(=O)O)NC(=O)CNC(=O)[C@H](Cc2c[nH]cn2)NC(=O)[C@H](Cc2ccccc2)NC(=O)[C@H](CCC(=O)O)NC(C)=O)C(=O)N[C@@H](C)C(=O)N[C@@H]([C@@H](C)O)C(=O)N[C@@H](CCCCN)C(=O)N[C@@H](Cc2ccccc2)C(=O)N[C@@H](CC(C)C)C(=O)N[C@@H](CCC(=O)O)C(=O)N1)C(=O)N[C@@H](CCCCN)C(=O)NCC(=O)N[C@@H](CCCCN)C(=O)N[C@@H](Cc1ccccc1)C(=O)N[C@@H](C)C(=O)N[C@@H](CO)C(N)=O [HEVS 124] | 11 | luciferase activity (bioluminescence) in treated mice (rHRSV-Luc): significant reduction
5 | CC[C@H](C)[C@H](NC(=O)[C@]1(C)CCCC=CCCCCCC[C@@](C)(NC(=O)[C@H](CC(N)=O)NC(=O)[C@H](CC(N)=O)NC(=O)[C@H](C)NC(=O)[C@]2(C)CCCC=CCCC[C@@](C)(NC(=O)[C@H](Cc3ccccc3)NC(=O)[C@H](CCC(=O)O)NC(C)=O)C(=O)NCC(=O)N[C@@H](CCC(=O)O)C(=O)N2)C(=O)N[C@@H](C)C(=O)N[C@@H]([C@@H](C)O)C(=O)N[C@@H](CCCCN)C(=O)N[C@@H](Cc2ccccc2)C(=O)N[C@@H](CC(C)C)C(=O)N[C@@H](CCC(=O)O)C(=O)N1)C(=O)N[C@@H](CCCCN)C(=O)NCC(=O)N[C@@H](CCCCN)C(=O)N[C@@H](Cc1ccccc1)C(=O)N[C@@H](C)C(=O)N[C@@H](CO)C(N)=O [HEVS 126, EFR5GES5ANNR8ATKFLES5IKGKFAS] (Ac-EF[R5]GE[S5]ANN[R8]ATKFLE[S5]IKGKFAS-NH2; staple 3-6, 10-17) | 3.5 | cytotoxicity (Hep2 cells): cytotoxic
6 | EDANNKATKFLESIKGKFAS [HEVS 73] |  | folding state by far UV CD [1]: largely unfolded
